Legend:
Type in all cases: cell-based
Mer = Mer (Homo sapiens (Human), UniProt Q12866); experiment: Mer autophosphorylation ELISA in transient transfected 293A cells; details: cellular, MERTK-transfected 293A cells, phospho-Mer ELISA
Description: 293A cells (Thermo Fisher #R70507) were seeded at 1.5×10^6 cells/well onto 100 mm dish (Greiner #664169), in DMEM (Thermo Fisher #11995-040) containing 10% FBS (Thermo Fisher #26140-079), 1% MEM NEAA (Thermo Fisher #11140-050), 1% GlutaMax (Thermo Fisher #35050-061), and 1% Penicillin Streptomycin (Thermo Fisher #15140-122). 293A cells were incubated at 37° C., 5% CO2 for 24 h and then transfected with 6 μg MERTK DNA (Genecopoeia #EX-Z8208-M02) using TransIT LT1 transfection reagent (Mirus-Bio #MIR2305). After 24 h incubation, the transfected 293A cells were seeded at 1×10^5 cells/well onto 96-well plates (Corning #3904) in DMEM growth medium overnight. Test compounds were serially diluted to produce an 8-point dose curve in fresh serum-free medium to a final concentration of 0.3% DMSO (vehicle) and added to the cells and incubated for 1 h. Cells were then immediately lysed with 150 μL of cold 1× lysis buffer [20 mM Tris, 137 mM sodium chloride, 2 mM EDTA, 10% glycerol, 1% NP-40 alternative, 1 mM activated sodium orthovanadate, 1 mM PefaBloc SC (Sigma-Aldrich #11429868001), protease/phosphatase inhibitor tablet (Thermo Fisher #A32959)]. Lysates were clarified by centrifugation and 50 μL/well added into the human phospho-Mer DuoSet IC ELISA (R&D Systems #DYC2579-2). Assay was performed according to manufacturer's instructions and sample phospho-Mer concentrations were extrapolated using human phospho-Mer control (R&D Systems #841793) as a standard. Positive control wells (100% activity) contained DMSO-treated cell lysates. Negative control wells (0% activity) contained reference inhibitor-treated cell lysates. IC50 values were calculated by nonlinear regression analysis using a 4-parameter logistic curve fit in ActivityBase XE (IDBS).

Met = Met (Homo sapiens (Human), UniProt P08581); experiment: Met autophosphorylation ELISA in PC-3 cells; details: cellular, HGF-stimulated, phospho-Met ELISA, read-out: c-Met IC50
Description: PC-3 prostate cancer cells (ATCC #CRL-1435) were seeded at 4×10^4 cells/well onto 24-well plates (Greiner #662165), in DMEM (Thermo Fisher #11995-040) containing 10% FBS (Thermo Fisher #26140-079), 1% MEM NEAA (Thermo Fisher #11140-050), 1% GlutaMax (Thermo Fisher #35050-061), and 1% Penicillin Streptomycin (Thermo Fisher #15140-122). PC-3 cells were incubated at 37° C., 5% CO2 for 24 h and then starved for 3 h in serum-free medium. Test compounds were serially diluted to produce an 8-point dose curve in fresh serum-free medium to a final concentration of 0.3% DMSO (vehicle) and added to the cells and incubated for 1 h. Cells were then stimulated with 100 ng/mL recombinant human HGF (R&D Systems #294-HG-250) for 10 min, washed with cold PBS, and immediately lysed with 130 μL of cold 1× lysis buffer [20 mM Tris, 137 mM sodium chloride, 2 mM EDTA, 10% glycerol, 1% NP-40 alternative, 1 mM activated sodium orthovanadate, 1 mM PefaBloc SC (Sigma-Aldrich #11429868001), and protease/phosphatase inhibitor tablet (Thermo Fisher #A32959)]. Lysates were clarified by centrifugation and 100 μL/well added into the PathScan phospho-Met (panTyr) Sandwich ELISA (Cell Signaling Technology #7333). Assay was performed according to manufacturer's instructions. Positive control wells (100% activity) contained HGF-stimulated, DMSO-treated cell lysates. Negative control wells (0% activity) contained HGF-stimulated, reference inhibitor-treated cell lysates. IC50 values were calculated by nonlinear regression analysis using a 4-parameter logistic curve fit in ActivityBase XE (IDBS).

KDR = KDR (Homo sapiens (Human), UniProt P35968); experiment: KDR autophosphorylation ELISA in HUVEC cells; details: cellular, VEGF165-stimulated, phospho-KDR ELISA
Description: Human umbilical vein endothelial cells or HUVEC (Lonza #C2519A) were seeded at 2×10^4 cells/well onto 96-well plates (Corning #3904), in EGM-2 growth medium (Lonza #CC-3162) containing 1% Penicillin Streptomycin (Thermo Fisher #15140-122). HUVEC cells were incubated at 37° C., 5% CO2 for 24 h and then starved for 24 h in serum-free EBM-2 basal medium (Lonza #CC-3156) containing 1% Penicillin Streptomycin. Test compounds were serially diluted to produce an 8-point dose curve in fresh serum-free medium to a final concentration of 0.3% DMSO (vehicle) and added to the cells and incubated for 1 h. Cells were then stimulated with 100 ng/mL recombinant human VEGF165 (R&D Systems #293-VE-500) for 5 min, washed with cold PBS, and immediately lysed with 130 μL of cold 1× lysis buffer [20 mM Tris, 137 mM sodium chloride, 2 mM EDTA, 10% glycerol, 1% NP-40 alternative, 1 mM activated sodium orthovanadate, 1 mM PefaBloc SC (Sigma-Aldrich #11429868001), protease/phosphatase inhibitor tablet (Thermo Fisher #A32959)]. Lysates were collected and 100 μL/well added into the human phospho-KDR DuoSet IC ELISA (R&D Systems #DYC1766-2). Assay was performed according to manufacturer's instructions and sample phospho-KDR concentrations were extrapolated using human phospho-KDR control (R&D Systems #841421) as a standard. Positive control wells (100% activity) contained VEGF165-stimulated, DMSO-treated cell lysates. Negative control wells (0% activity) contained non-stimulated cell lysates. IC50 values were calculated by nonlinear regression analysis using a 4-parameter logistic curve fit in ActivityBase XE (IDBS).

AXL = AXL (Homo sapiens (Human), UniProt P30530); experiment: AXL autophosphorylation ELISA in A-172 cells; details: cellular, Gas6-stimulated, phospho-AXL ELISA
Description: A-172 glioblastoma cells (ATCC #CRL-1620) were seeded at 2.5×10^5 cells/well onto 24-well plates (Greiner #662165), in […] (Thermo Fisher #11995-040) containing 10% FBS (Thermo Fisher #26140-079), […] (Thermo Fisher #11140-050), […] (Thermo Fisher #35050-061), and 1% Penicillin Streptomycin (Thermo Fisher #15140-122). A-172 cells were incubated at 37° C., […] for 24 hand then starved for 24 h in serum-free medium. Test compounds were serially diluted to produce an 8-point dose curve in fresh serum-free medium to a final concentration of 0.3% DMSO (vehicle) and added to the cells and incubated for 1 h. Cells were then stimulated with 1 μg/mL recombinant human Gas6 (R&D Systems #885-GSB-500) for 15 min, washed with cold PBS, and immediately lysed with 150 μL of cold 1× lysis buffer [20 mM Tris, 137 mM sodium chloride, 2 mM EDTA, 10% glycerol, 1% NP-40 alternative, 1 mM activated sodium orthovanadate, 1 mM PefaBloc SC (Sigma-Aldrich #11429868001), protease/phosphatase inhibitor tablet (Thermo Fisher #A32959)]. Lysates were collected and 100 μL/well added into the human phospho-AXL DuoSet IC ELISA (R&D Systems #DYC2228-2). Assay was performed according to manufacturer's instructions and sample phospho-AXL concentrations were extrapolated using human phospho-AXL control (R&D Systems #841645) as a standard. Positive control wells (100% activity) contained Gas6-stimulated, DMSO-treated cell lysates. Negative control wells (0% activity) contained Gas6-stimulated, reference inhibitor-treated cell lysates. IC50 values were calculated by nonlinear regression analysis using a 4-parameter logistic curve fit in ActivityBase XE (IDBS).

Sequence of Met (P08581 25-1390): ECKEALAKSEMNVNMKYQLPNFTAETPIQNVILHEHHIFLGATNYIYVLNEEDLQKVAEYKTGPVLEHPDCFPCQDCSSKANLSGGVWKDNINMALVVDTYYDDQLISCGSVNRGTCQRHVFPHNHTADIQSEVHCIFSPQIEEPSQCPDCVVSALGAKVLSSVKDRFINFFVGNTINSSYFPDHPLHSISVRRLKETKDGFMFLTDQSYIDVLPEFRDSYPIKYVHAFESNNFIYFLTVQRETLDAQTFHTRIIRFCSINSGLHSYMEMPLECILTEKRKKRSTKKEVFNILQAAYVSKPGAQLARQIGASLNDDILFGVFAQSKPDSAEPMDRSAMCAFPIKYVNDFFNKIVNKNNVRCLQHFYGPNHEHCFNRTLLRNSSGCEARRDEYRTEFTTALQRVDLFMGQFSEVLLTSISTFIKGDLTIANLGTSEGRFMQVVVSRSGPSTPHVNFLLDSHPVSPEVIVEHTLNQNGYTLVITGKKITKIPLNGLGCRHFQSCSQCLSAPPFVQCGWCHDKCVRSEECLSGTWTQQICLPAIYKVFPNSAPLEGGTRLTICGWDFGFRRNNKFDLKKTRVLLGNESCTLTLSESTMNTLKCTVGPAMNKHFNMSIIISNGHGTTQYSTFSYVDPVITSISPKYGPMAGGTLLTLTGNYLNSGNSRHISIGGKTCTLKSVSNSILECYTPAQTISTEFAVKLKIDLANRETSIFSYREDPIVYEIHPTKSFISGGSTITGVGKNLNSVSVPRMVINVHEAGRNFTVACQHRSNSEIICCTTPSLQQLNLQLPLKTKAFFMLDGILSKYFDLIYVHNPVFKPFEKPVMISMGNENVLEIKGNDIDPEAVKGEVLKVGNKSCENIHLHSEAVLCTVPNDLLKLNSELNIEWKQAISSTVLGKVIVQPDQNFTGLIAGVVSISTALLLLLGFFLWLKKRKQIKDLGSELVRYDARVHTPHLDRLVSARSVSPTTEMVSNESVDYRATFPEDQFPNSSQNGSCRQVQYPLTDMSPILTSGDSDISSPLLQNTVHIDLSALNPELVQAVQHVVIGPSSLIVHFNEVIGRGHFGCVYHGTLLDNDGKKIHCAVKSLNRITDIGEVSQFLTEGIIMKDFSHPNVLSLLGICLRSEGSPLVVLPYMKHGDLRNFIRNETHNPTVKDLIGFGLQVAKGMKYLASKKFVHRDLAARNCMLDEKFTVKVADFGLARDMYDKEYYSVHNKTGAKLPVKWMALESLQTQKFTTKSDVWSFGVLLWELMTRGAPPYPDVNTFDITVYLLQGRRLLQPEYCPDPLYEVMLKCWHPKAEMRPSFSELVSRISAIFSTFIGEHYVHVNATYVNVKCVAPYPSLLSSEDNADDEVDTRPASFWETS
Sequence of KDR (P35968 20-1356): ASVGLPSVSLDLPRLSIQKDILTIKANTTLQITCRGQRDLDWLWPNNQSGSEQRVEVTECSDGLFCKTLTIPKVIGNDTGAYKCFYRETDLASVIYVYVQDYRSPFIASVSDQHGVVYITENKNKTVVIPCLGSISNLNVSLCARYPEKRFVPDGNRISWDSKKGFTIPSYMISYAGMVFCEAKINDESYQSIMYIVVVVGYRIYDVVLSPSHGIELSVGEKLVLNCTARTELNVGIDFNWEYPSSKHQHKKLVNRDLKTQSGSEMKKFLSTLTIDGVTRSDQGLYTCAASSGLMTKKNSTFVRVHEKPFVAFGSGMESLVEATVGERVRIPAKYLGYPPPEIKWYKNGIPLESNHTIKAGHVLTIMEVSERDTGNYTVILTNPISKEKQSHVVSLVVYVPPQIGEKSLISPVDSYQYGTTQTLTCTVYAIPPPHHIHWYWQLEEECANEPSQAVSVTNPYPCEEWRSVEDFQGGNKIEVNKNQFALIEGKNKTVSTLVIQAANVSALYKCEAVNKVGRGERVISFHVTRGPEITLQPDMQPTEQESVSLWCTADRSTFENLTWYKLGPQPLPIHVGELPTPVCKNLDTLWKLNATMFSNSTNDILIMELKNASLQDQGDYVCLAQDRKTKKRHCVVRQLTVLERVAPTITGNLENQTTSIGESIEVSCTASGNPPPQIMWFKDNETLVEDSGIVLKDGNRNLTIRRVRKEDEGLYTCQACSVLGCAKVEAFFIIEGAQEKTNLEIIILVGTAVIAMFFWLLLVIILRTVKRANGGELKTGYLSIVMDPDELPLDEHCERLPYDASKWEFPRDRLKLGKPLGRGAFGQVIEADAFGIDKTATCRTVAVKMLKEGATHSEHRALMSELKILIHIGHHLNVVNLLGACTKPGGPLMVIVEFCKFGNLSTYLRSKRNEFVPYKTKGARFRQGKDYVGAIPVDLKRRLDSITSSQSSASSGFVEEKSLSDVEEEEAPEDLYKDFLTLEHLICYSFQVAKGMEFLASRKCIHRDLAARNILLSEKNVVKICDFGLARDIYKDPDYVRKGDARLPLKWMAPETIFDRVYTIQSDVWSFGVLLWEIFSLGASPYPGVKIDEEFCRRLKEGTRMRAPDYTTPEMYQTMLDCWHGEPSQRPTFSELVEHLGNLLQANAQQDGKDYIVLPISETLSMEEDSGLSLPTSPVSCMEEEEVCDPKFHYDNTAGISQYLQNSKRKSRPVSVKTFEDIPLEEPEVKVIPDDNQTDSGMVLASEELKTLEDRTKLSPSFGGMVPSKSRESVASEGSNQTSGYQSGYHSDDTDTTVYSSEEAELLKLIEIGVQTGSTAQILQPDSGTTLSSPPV
Sequence of Mer (Q12866 21-999): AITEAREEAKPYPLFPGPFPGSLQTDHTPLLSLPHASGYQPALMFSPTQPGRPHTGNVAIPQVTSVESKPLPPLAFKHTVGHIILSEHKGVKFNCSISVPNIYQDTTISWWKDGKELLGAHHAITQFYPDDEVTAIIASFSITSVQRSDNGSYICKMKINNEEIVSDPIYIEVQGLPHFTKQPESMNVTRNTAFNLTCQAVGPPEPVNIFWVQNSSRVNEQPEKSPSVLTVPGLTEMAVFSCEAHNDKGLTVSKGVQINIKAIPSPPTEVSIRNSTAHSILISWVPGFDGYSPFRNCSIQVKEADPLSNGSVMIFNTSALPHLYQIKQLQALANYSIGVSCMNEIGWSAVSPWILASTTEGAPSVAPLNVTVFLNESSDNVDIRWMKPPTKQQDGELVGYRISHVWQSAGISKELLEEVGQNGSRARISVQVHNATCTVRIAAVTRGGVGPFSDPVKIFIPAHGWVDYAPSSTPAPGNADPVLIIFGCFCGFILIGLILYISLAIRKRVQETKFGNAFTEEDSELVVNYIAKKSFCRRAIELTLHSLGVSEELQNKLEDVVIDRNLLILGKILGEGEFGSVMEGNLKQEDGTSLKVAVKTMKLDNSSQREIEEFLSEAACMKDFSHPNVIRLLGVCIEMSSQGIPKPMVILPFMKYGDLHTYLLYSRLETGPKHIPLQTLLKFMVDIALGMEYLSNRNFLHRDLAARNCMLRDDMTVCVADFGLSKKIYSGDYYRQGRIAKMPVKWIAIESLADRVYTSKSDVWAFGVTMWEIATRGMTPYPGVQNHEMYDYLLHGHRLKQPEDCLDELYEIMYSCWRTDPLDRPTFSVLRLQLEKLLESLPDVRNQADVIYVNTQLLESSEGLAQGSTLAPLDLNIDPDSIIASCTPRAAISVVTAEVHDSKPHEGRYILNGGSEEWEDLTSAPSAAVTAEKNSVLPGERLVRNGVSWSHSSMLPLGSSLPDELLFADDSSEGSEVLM
Sequence of AXL (P30530 26-894): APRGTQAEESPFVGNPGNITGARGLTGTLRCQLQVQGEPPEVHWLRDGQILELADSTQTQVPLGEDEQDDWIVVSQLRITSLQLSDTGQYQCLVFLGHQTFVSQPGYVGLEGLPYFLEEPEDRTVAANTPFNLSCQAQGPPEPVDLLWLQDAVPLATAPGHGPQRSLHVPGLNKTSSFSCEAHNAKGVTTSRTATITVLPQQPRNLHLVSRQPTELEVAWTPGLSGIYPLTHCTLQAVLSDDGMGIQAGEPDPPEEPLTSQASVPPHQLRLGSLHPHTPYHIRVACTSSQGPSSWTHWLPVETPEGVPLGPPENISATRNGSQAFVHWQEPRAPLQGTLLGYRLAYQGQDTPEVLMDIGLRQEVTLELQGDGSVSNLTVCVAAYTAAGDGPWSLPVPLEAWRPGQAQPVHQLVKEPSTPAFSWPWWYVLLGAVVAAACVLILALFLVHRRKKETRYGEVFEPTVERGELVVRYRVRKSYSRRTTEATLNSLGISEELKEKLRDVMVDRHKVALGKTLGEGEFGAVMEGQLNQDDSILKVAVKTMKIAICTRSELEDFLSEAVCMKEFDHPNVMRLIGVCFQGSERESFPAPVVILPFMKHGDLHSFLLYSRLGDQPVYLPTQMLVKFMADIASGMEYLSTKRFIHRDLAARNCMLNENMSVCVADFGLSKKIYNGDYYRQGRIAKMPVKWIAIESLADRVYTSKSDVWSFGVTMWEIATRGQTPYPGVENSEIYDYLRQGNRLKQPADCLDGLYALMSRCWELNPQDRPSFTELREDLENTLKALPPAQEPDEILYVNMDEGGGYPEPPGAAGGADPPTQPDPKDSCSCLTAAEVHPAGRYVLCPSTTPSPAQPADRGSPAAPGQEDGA

Row | SMILES | IC50 (Mer) | IC50 (Met) | IC50 (KDR) | IC50 (AXL)
1 | CNC(=O)c1cc2c(Oc3ncc(NC(=O)C4(C(=O)Nc5ccc(F)cc5)CC4)cc3Cl)ccnc2cc1OC [Compound 19, 1-N′-[5-Chloro-6-[7-methoxy-6-(methylcarbamoyl)quinolin-4-yl]oxypyridin-3-yl]-1-N-(4-fluorophenyl)cyclopropane-1,1-dicarboxamide] | 0.01 to 0.1 µM | 0.01 to 0.1 µM | > 0.3 µM | ≤ 0.01 µM
2 | CCNC(=O)c1cc2c(Oc3ncc(NC(=O)C4(C(=O)Nc5ccc(F)cc5)CC4)cc3Cl)ccnc2cc1OC [Compound 20, 1-N′-[5-Chloro-6-[6-(ethylcarbamoyl)-7-methoxyquinolin-4-yl]oxypyridin-3-yl]-1-N-(4-fluorophenyl)cyclopropane-1,1-dicarboxamide] | 0.01 to 0.1 µM | 0.01 to 0.1 µM | > 0.3 µM | 0.01 to 0.1 µM
3 | COc1cc2nccc(Oc3ncc(NC(=O)C4(C(=O)Nc5ccc(F)cc5)CC4)cc3F)c2cc1C(N)=O [Compound 21, 1-N′-[6-(6-Carbamoyl-7-methoxyquinolin-4-yl)oxy-5-fluoropyridin-3-yl]-1-N-(4-fluorophenyl)cyclopropane-1,1-dicarboxamide] | 0.01 to 0.1 µM | 0.01 to 0.1 µM | > 0.3 µM | ≤ 0.01 µM
4 | CNC(=O)c1cc2c(Oc3ncc(NC(=O)C4(C(=O)Nc5ccc(F)cc5)CC4)cc3F)ccnc2cc1OC [Compound 22, 1-N′-[5-Fluoro-6-[7-methoxy-6-(methylcarbamoyl)quinolin-4-yl]oxypyridin-3-yl]-1-N-(4-fluorophenyl)cyclopropane-1,1-dicarboxamide] | 0.01 to 0.1 µM | 0.01 to 0.1 µM | > 0.3 µM | ≤ 0.01 µM
5 | COCCOc1cc2nccc(Oc3ccc(NC(=O)C4(C(=O)Nc5ccc(F)cc5)CC4)cn3)c2nc1OC [Compound 114, 1-N-(4-Fluorophenyl)-1-N′-[6-[[6-methoxy-7-(2-methoxyethoxy)-1,5-naphthyridin-4-yl]oxy]pyridin-3-yl]cyclopropane-1,1-dicarboxamide] |  | 0.1 to 0.3 µM | > 0.3 µM | 0.1 to 0.3 µM
6 | COCCOc1cc2nccc(Oc3ncc(NC(=O)C4(C(=O)Nc5ccc(F)cc5)CC4)cc3Cl)c2nc1OC [Compound 115, 1-N′-[5-Chloro-6-[[6-methoxy-7-(2-methoxyethoxy)-1,5-naphthyridin-4-yl]oxy]pyridin-3-yl]-1-N-(4-fluorophenyl)cyclopropane-1,1-dicarboxamide] |  | 0.01 to 0.1 µM | > 0.3 µM | 0.1 to 0.3 µM
7 | COc1nc2c(Oc3ncc(NC(=O)C4(C(=O)Nc5ccc(F)cc5)CC4)cc3F)ccnc2cc1O [Compound 121, 1-N′-[5-Fluoro-6-[(7-hydroxy-6-methoxy-1,5-naphthyridin-4-yl)oxy]pyridin-3-yl]-1-N-(4-fluorophenyl)cyclopropane-1,1-dicarboxamide] |  | > 0.3 µM | > 0.3 µM | > 0.3 µM
8 | COCCOc1nc2c(Oc3ncc(NC(=O)C4(C(=O)Nc5ccc(F)cc5)CC4)cc3F)ccnc2cc1OC [Compound 134, 1-N′-[5-Fluoro-6-[[7-methoxy-6-(2-methoxyethoxy)-1,5-naphthyridin-4-yl]oxy]pyridin-3-yl]-1-N-(4-fluorophenyl)cyclopropane-1,1-dicarboxamide] |  | > 0.3 µM | > 0.3 µM | > 0.3 µM
9 | COc1cc2nccc(Oc3ncc(NC(=O)C4(C(=O)Nc5ccc(F)cc5)CC4)cc3F)c2nc1OCCCN1CCOCC1 [Compound 135, 1-N′-[5-Fluoro-6-[[7-methoxy-6-(3-morpholin-4-ylpropoxy)-1,5-naphthyridin-4-yl]oxy]pyridin-3-yl]-1-N-(4-fluorophenyl)cyclopropane-1,1-dicarboxamide] |  | > 0.3 µM | > 0.3 µM | > 0.3 µM
10 | COc1cc2ncnc(Oc3ccc(NC(=O)C4(C(=O)Nc5ccc(F)cc5)CC4)cn3)c2nc1OC [Compound 145, 1-N′-[6-(6,7-Dimethoxypyrido[3,2-d]pyrimidin-4-yl)oxypyridin-3-yl]-1-N-(4-fluorophenyl)cyclopropane-1,1-dicarboxamide] |  | > 0.3 µM | > 0.3 µM | 0.1 to 0.3 µM
11 | COCCOc1cc2ncnc(Oc3ccc(NC(=O)C4(C(=O)Nc5ccc(F)cc5)CC4)cn3)c2nc1OC [Compound 156, 1-N-(4-Fluorophenyl)-1-N′-[6-[6-methoxy-7-(2-methoxyethoxy)pyrido[3,2-d]pyrimidin-4-yl]oxypyridin-3-yl]cyclopropane-1,1-dicarboxamide] |  | > 0.3 µM | > 0.3 µM | 0.01 to 0.1 µM
12 | COCCOc1cc2ncnc(Oc3ncc(NC(=O)C4(C(=O)Nc5ccc(F)cc5)CC4)cc3F)c2nc1OC [Compound 159, 1-N′-[5-Fluoro-6-[6-methoxy-7-(2-methoxyethoxy)pyrido[3,2-d]pyrimidin-4-yl]oxypyridin-3-yl]-1-N-(4-fluorophenyl)cyclopropane-1,1-dicarboxamide] |  | > 0.3 µM | > 0.3 µM | > 0.3 µM

From patent publication US11673897B2, “Compounds for the treatment of kinase-dependent disorders” (Exelixis, Inc., priority 2018, dated 2023)
